Experimental data taken from patent US4973675A, “Hybrid nitrosoureidoanthracyclines having antitumor activity” (University of Tennessee Research Center, priority 1989, dated 1990).
“Also recorded” adds a separate entry of the source. Read-outs that look alike come from different tables or passages of the source.

Assays:
[1] = Chemical stability / autodegradation to oxazolidinone (HPLC); format: physicochemical
Source text: FIGS. 2A and 2B are reproductions of HPLC printouts showing autodegration of N-2-chloroethylnitrosoureidoadriamycin.
Again, depending upon the specific compound, similar results were seen when compounds were exposed to aqueous media or even maintained in the dry state in a vacuum desiccator. Of importance, all daunorubicin urea and nitrosourea products, regardless of the specific alkyl or aryl substituent, afforded the same anthracycline degradation product; similarly, all adriamycin ureas and nitrosoureas afforded the same other degradation material.
Epirubicin (4'-epiadriamycin) is an example of such a starting material.

[2] = test system: murine L1210 leukemia cells; test: Clonogenic assay with cultured murine L1210 leukemia cells, 1 h drug exposure (LD90); format: cell-based; settings: for clonogenic cell kill: L1210, 1 hour exposure; for IC90: Mus musculus, L1210, 1 hr drug exposure, read-out: L1210 LD90 (dose killing 90% of clonogens)
Method: (§1) Culture and bioassay conditions were as described in Cancer Chemotherapy Pharmacology 20:277 (1987) "Comparative Effects of Adriamycin and DNA-nonbinding Analogues on DNA, RNA, and Protein Synthesis in Vitro", Israel et al., except that cell counts were determined by hemocytometer rather than by automated cell counting.
+Dose killing 90% of clonogens, 1hr. drug exposure.

murine P388 leukemia = test: In vivo antitumor activity vs. murine P388 (P388/S) leukemia; design: species or system murine (B6D2F1 males); settings: for Long-term survivors / Median increase in lifespan / Median survival / Net mean percent weight change, day 7 / Range of deaths (dying animals): ip
Source text: Initial studies utilized a multiple dose schedule, with drug administered once daily on days 1, 2, 3 and 4. […] The marked activity of AD 312 in this system has been confirmed in multiple separate experiments.
Additional studies were done with AD 312 vs. murine P388/S under more demanding conditions of assay.
^a Summary results of 4 separate experiments. B6D2F1 males; 1 ×

human CLL lymphocytes = test: DNA alkaline elution filter assay, DNA damage in human CLL lymphocytes; format: cell-based; settings: for DD-CL, interstrand DNA crosslinks / DP-CL, DNA-protein crosslinks: CLL, 1 μM, 1 hr incubation
Source text: (§2) By means of the DNA alkaline elution filter assay technique, it is possible to assess the nature of damage induced in DNA by exposure to drugs and other agents. Depending on the assay conditions, DNA lesions can be quantified as direct strand breaks, DNA-DNA interstrand crosslinks, and protein-associated strand breaks and crosslinks. The action of akylating-type drugs on DNA typically results in a predominant formation of direct DNA single-strand breaks and DNA-DNA crosslinks. DNA intercalating agents show a preponderance of protein-associated DNA damage, detectable as protein-associated single-strand breaks and DNA-protein crosslinks.
(§3) The nature of nitrosoureidoanthracycline-induced DNA damage in murine L1210 and human CLL lymphocytes was assessed by means of the alkaline elution filter technique. Murine L1210 leukemic lymphocytes, like P388/S lymphocytes, are known to contain high levels of topoisomerase II.
(§4) *All concentrations 1 μM, 1hr incubation. Each entry represents the
(§5) mean of at least two experiments, frequency per 10^6 nucleotides;
(§6) statistically significant increase above background underlined. DB, direc
(§7) (nonenzymatic) DNA breaks; PAB, proteinassociated DNA cleavage; DDCL,
(§8) interstrand DNA crosslinks; DPCL, DNAprotein crosslinks.
B-cell type lymphocytes freshly obtained from patients with chronic lymphocytic leukemia (CLL) show undetectable levels of topoisomerase II.

[3] = test system: human CEM leukemic lymphocytes; test: Growth inhibition of human CEM leukemic lymphocyte suspension cultures, 48 h continuous drug exposure (ID50); format: cell-based; settings: for growth inhibitory activity: CEM in vitro; for IC50: Homo sapiens, Lymphocyte, CEM, 48 hr continuous drug exposure (Table 2), read-out: ID50 (the source's name)
Method: as §1

murine L1210 lymphocytes = test: DNA alkaline elution filter assay, DNA damage in murine L1210 lymphocytes; format: cell-based; settings: L1210
Source text: as §2, §3, §4, §5, §6, §7, §8

DNA topoisomerase II = test: Drug-stimulated topoisomerase II-mediated DNA cleavage assay (end-labeled PMC41 DNA); format: biochemical; settings: for enhancement of topoisomerase II-mediated DNA cleavage: 625-fold concentration range; for DNA topoisomerase II-inhibitory and alkylating activity: summary of biochemical studies
Source text: FIGS. 5A and 5B are a photographic reproduction of the results of drug-stimulated topoisomerase II-mediated DNA cleavage assays performed on various compounds, including compounds of the present invention.
DNA intercalation is a necessary but not a sufficient requirement for DNA topoisomerase II-mediated DNA cleavage. Accordingly, determination of drug-induced enzyme inhibition requires direct assay with isolated topoisomerase II. These assays involve determination of drug-enhanced topoisomerase II-mediated cleavage of PMC41 DNA appropriately end-labeled with [α-^32 P]dATP. As better seen in FIG. 5B, lane B, purified topoisomerase II, under the assay conditions, causes fragmentation of the DNA (background cleavage), as indicated by the radioautographic appearance of bands of cleaved DNA having differing mass values.

[4] = test system: plasmid PC15 supercoiled DNA; test: DNA unwinding assay (interference with DNA topoisomerase I-mediated unwinding; drug-DNA intercalation); format: biochemical
Source text: DNA unwinding assays were used to measure the ability of a test drug to interfere with DNA topoisomerase I-mediated unwinding of plasmid PC15 supercoiled DNA. DNA topoisomerase I controls the topology of double-stranded DNA and is itself not inhibited by DNA intercalating agents. Rather, intercalating agents cause distortion of the torsional angle between adjacent DNA strand components and thereby interfere with the ability of topoisomerase I to convert supercoiled DNA into relaxed forms. Accordingly, this assay is taken as the definitive test of drug-DNA intercalation.
Drugs were tested at 4 concentrations over a 125-fold concentration range. […] These compounds are 2-chloroethylurea derivatives of daunorubicin and adriamycin, respectively (i.e. not nitrosoureas, but chemical intermediates from which the nitrosoureas were derived).

[5] = Solubility in water or saline; format: physicochemical
Method: Accordingly, the compounds are formulated for administration by dissolving the compound in a pharmaceutically acceptable non-toxic carrier which contains a surfactant. The present inventors employ a formulation of 10% Cremaphor EL (a polyhydroxylated castor oil derivative) available from BASF Chemicals, 10% ethanol and 80% aqueous media (sterile water or saline solution). That quantity of the compound desired for establishing an effective dose is dissolved in a 1:1 mixture of Cremaphor EL and ethanol. Thereafter, sufficient aqueous medium is added with stirring to develop a final formulation containing 80% aqueous medium. This formulation is administered parenterally.

## COc1cccc2c1C(=O)c1c(O)c3c(c(O)c1C2=O)C[C@@](O)(C(=O)CO)C[C@@H]3O[C@H]1C[C@H](NC(=O)N(CCCl)N=O)[C@H](O)[C@H](C)O1 [AD 347, 2-chloroethylnitrosoureidoadriamycin]
[1]; HPLC, chloroform-methanol, overnight in the cold where stated
  autodegradation: a second signal was clearly evident
[2]
  clonogenic cell kill: essentially equipotent
  IC90: 580 nM
Murine P388 leukemia; P388/S, 16.0 mg/kg/day×4
  increase in life span: > 500%
  survival at 60 days: 57%
Murine P388 leukemia; 2.0 mg/kg qd 1-4 (Table 7)
  Long-term survivors: 0/7
  Median increase in lifespan: +70%
  Median survival: 17 days
  Net mean percent weight change, day 7: +8%
  Range of deaths (dying animals): 16 to 18 days
Murine P388 leukemia; 4.0 mg/kg qd 1-4 (Table 7)
  Long-term survivors: 0/7
  Median increase in lifespan: +90%
  Median survival: 19 days
  Net mean percent weight change, day 7: +2%
  Range of deaths (dying animals): 18 to 21 days
Murine P388 leukemia; 8.0 mg/kg qd 1-4
  Long-term survivors: 0/7
  Median increase in lifespan: +120%
  Median survival: 22 days
  Net mean percent weight change, day 7: +2%
  Range of deaths (dying animals): 19 to 24 days
Murine P388 leukemia; 12.0 mg/kg qd 1-4
  Median increase in lifespan: +160%
  Median survival: 26 days
  Net mean percent weight change, day 7: +2%
  Range of deaths (dying animals): 22 to 37 days
Murine P388 leukemia; 12.0 mg/kg qd 1-4, sacrifice day 60
  Long-term survivors: 2/7
Murine P388 leukemia; 16.0 mg/kg qd 1-4
  Median increase in lifespan: > +500%
  Net mean percent weight change, day 7: -3%
  Range of deaths (dying animals): 26 to 31 days
Murine P388 leukemia; 16.0 mg/kg qd 1-4, sacrifice day 60
  Long-term survivors: 4/7
Human CLL lymphocytes; CLL B-cell lymphocytes
  pattern of DNA damage: some level of protein-associated DNA damage in these cells, but also affords significant levels of alkylation-type damage, seen as direct strand breaks and, with increasing time, DNA interstrand crosslinks
Human CLL lymphocytes; 0 hr after treatment
  DD-CL, interstrand DNA crosslinks: -0.18 frequency per 10^6 nucleotides
  DP-CL, DNA-protein crosslinks: 0.16 frequency per 10^6 nucleotides
Human CLL lymphocytes; 1 hr after treatment
  DD-CL, interstrand DNA crosslinks: -0.04 frequency per 10^6 nucleotides
  DP-CL, DNA-protein crosslinks: 0.17 frequency per 10^6 nucleotides
Human CLL lymphocytes; 3 hr after treatment
  DP-CL, DNA-protein crosslinks: 0.19 frequency per 10^6 nucleotides
[3]
  potency compared to adriamycin (more potent): 10 fold
  growth inhibitory activity: almost identical in vitro biological properties; also recorded: moderate to marked growth inhibitory activity
  IC50: 5 nM
Murine L1210 lymphocytes
  pattern of DNA damage: pattern of DNA damage consistent with both topoisomerase II inhibition and DNA-alkylatingaction
DNA topoisomerase II
  enhancement of topoisomerase II-mediated DNA cleavage: no saturation of background cleavage
  DNA topoisomerase II-inhibitory and alkylating activity: clearly establish the DNA topoisomerase II-inhibitory activity and alkylating activity
[4]; 0 = no intercalation, 9 = very strong intercalation
  relative strength of drug-DNA intercalation (arbitrary scale): 8
[4]; 4 concentrations, 125-fold range
  interference with topoisomerase I-mediated conversion of supercoiled DNA / intercalation: the ability of these compounds to intercalate, a prerequisite for topoisomerase II inhibition, is clearly established

## COc1cccc2c1C(=O)c1c(O)c3c(c(O)c1C2=O)C[C@@](O)(C(=O)CO)C[C@@H]3O[C@H]1C[C@H](NC(=O)N(CCCl)N=O)[C@@H](O)[C@H](C)O1 [AD 392, 2-chloroethylnitrosoureidoepirubicin]
[1]; relative to adriamycin-derived products
  chemical stability / tendency to decompose to oxazolidinone: improved chemical stability
[2]
  clonogenic cell kill: essentially equipotent
  IC90: 530 nM
[3]
  potency compared to adriamycin (more potent): 10 fold
  growth inhibitory activity: almost identical in vitro biological properties; also recorded: moderate to marked growth inhibitory activity
  IC50: 5 nM
[5]; water or saline solution
  solubility: essentially insoluble in water or saline solution
[5]; water, of the order of, read-out: solubility in water
  solubility: < 25 µg/mL
Murine L1210 lymphocytes
  pattern of DNA damage: pattern of DNA damage consistent with both topoisomerase II inhibition and DNA-alkylatingaction
DNA topoisomerase II
  enhancement of topoisomerase II-mediated DNA cleavage: no saturation of background cleavage
  DNA topoisomerase II-inhibitory and alkylating activity: clearly establish the DNA topoisomerase II-inhibitory activity and alkylating activity
